Results on three compounds are retold here after patent publication US10189881B2, “MPS peptides and use thereof” (The Regents of the University of California, priority 2013, dated 2019).

“Also recorded” adds a separate entry of the source. Peptide text beside a SMILES is read from it.

In one data set the test system is H1975 cells. Kind of data set: Subcutaneous H1975 xenograft, peptide treatment. It counts as in vivo, nude mice. Conditions: i.p., 28 mg/kg every three days for 7 injections. The method, then:
FIGS. 14A-14F show suppressive effects of MPS peptide on cancer growth and metastasis in vivo. (A-C) Suppression of tumorigenesis by MPS peptide. Nude mice bearing subcutaneous tumors were treated for 21 days with intraperitoneal injections of PBS, Mut or MPS peptide at the dosage of 28 mg/kg/3 days. Tumor appearance and volumes were measured and data was presented as mean±SD (n=5, A). A representative photo of primary tumors from subcutaneous tissue of nude mice was shown (B, left). The tumor weights were average values from five mice per group and data were shown as mean±SE (B, right). * P<0.05 as compared with PBS group. […] Top, a representative photo of primary tumors from subcutaneous tissue of nude mice. Bottom, tumor weights are average values from six mice per group. Data were shown as mean±SE. *P<0.01 as compared to PBS-treated group. (E) Inhibition of lung cancer metastasis by MPS peptide. Dissociated PC9 cells were orthotopically injected into the left lobe of the mouse lung. […] (F) Quantification of the average pulmonary metastasis nodules from mice with injected cancer cells and treated with […] or MPS peptide as described (*P<0.05 versus PBS).
To determine the anti-cancer effect of the MPS peptide in vivo, H1975 cells were injected subcutaneously into nude mice. […] After treatment for 21 days, the animals were sacrificed to evaluated tumor weights.

The test system of data set [1] is MARCKS phosphorylation (Ser159/163). The experiment in a line: Western blot of MARCKS phosphorylation in peptide-treated cells. It counts as cell-based, human. Particulars: for Suppression of p-MARCKS: 100 μM peptide, 24 hours, H1650 or H1975 cells. On the procedure:
The levels of MARCKS phosphorylation in chemoresistant cancer cell lines after 24 hours of MPS or mutant (Mut) peptide treatment. Lysates form 100 μM MPS-or Mut peptide-treated H1650 or H1975cells were subjected to immunoblotting. The sequences of MARCKS MPS peptide consisted of amino acids 152 to 176 from the wild-type protein (SEQ ID NO: 9). The sequences of mutated MPS peptide (Mut) (SEQ ID NO: 14) had the replacement of serine residues (S) by aspartate (D) and are unable to be recognized by PKC. The underline represents the PIP2 binding site.
(§1) FIGS. 13A-13G show MPS peptide suppresses cancer cell proliferation and also induces apoptosis in these cells through direct downregulation of MARCKS activation. (A) Determination of MARCKS phosphorylation levels after 24 hours of MPS peptide treatment. Lysates from 1-100 μM MPS peptide-treated H1975 cells were subjected to western blot analysis. (B) Levels of PIP3 in drug resistant cancer cell lines after MPS peptide treatment. Cells were treated with 10, 50 or 100 μM MPS peptide. After 24 hours of treatment, PIP3 lipids were extracted from these cells and analyzed by a PIP3 ELISA kit. *P<0.05 compared with untreated cells. (C) Downregulation of AKT phosphorylation by MPS peptide treatment, but not by Mut peptide. Cells were treated with 100 μM MPS or Mut peptide for 24 hours. Lysates were immunoblotted with the indicated antibodies. (D) Cell viability analysis of six cancer cell lines and human bronchial epithelial cells (HBE1) upon MPS treatment. Cells were incubated with various concentrations of MPS peptide for 72 hours and then subjected to MTS assays. Polylysine served as a peptide control. n=4, *P<0.05 compared with untreated cells (Con). (E) Cells were treated with the indicated concentrations of MPS peptide and colonies were counted after 10 days of treatment using crystal violet staining (F) MPS treatment augments cell death. […] The percentages of apoptotic cells were quantified by flow cytometry (top), and presented as mean±SD of three experiments (bottom). *, P<0.05 versus untreated cells (Con). […]

The next data set deals with CL1-0 cells. Kind of data set: NBD-labeled peptide binding to live cells (confocal microscopy). It counts as cell-based, human. Particulars: NBD-labeled peptides; b53 versus D-Mut, b70 versus SEQ ID NO: 9. An excerpt:
FIGS. 28A-28C show MPS peptide binding to live cells. (A) Peptide sequences showing substitution of serine residues in MPS peptide (SEQ ID NO: 9). The serine residues of MPS peptide were replaced either by adding 4 aspartic acids (SEQ ID NO: 14), which are negatively charged and result in making the final peptide less positive, or by adding 4 alanines (SEQ ID NO: 10), which increased membrane affinity. Both the MPS and alanines-substituted (A-Mut) MPS peptides are highly positive charged and interact electrostatically with PIP2 on the phospholipid membrane. In contrast, electrostatic interaction with cell membrane is decreased in aspartates-substituted (D-Mut) MPS peptide (Gambhir, A. et al. (2004) Biophys. J. 86:2188-2207; Rusu, L. et al. (2004) Biophys J. 87:1044-1053; Glaser, M. et al. (1996) J. Biol. Chem. 271:26187-26193; Ellena, J.F. et al. (2003) Biophys. J. 85:2442-2448; McLaughlin, S. et al. (2005) Nature 438:605-611). Figure discloses “MH” domain as SEQ ID NO: 42. […] MPS peptide, D-Mut, and A-Mut MPS peptide were labeled with NBD (4-Chloro-7-Nitrobenz-2-Oxa-1,3-Diazole) dye. After purification of peptides, CL1-0 cells were treated with various NBD-labeled peptides and then subjected to DAPI staining. The NBD-labeled peptide (green) and nucleus counter-stain (blue) were visualized via confocal laser-scanning microscopy. […]

A further data set concerns cancer cells. Kind of data set: Anti-cancer activity of alanine-substituted MPS (method not given).
Data set [2] has as its system cancer cell lines (H1975, HCT116, H1650, CL1-5 and others). Kind of data set: MTS cell viability assay, cancer cell lines. Particulars: H1975, HCT116, H1650 and CL1-5 cells; 72 hours; listed as MPS peptide. It counts as cell-based. On the procedure:
Top, cells were incubated with various concentrations of MPS peptide for 72 hours and then subjected to a MTS assay for analysis of cell viability. Polyamine served as a peptide control. *, P<0.05 compared with untreated cells. The HBE1 cell line is a normal bronchial epithelial cell line. Bottom, ethnicities of the cancer cell lines used for MTS assay.
as §1, with “(C) Downregulation of AKT phosphorylation by MPS peptide treatment, but not by Mut peptide. Cells were treated with 100 μM MPS or Mut peptide for 24 hours. Lysates were immunoblotted with the indicated antibodies. (D) Cell viability analysis of six cancer cell lines and human bronchial epithelial cells (HBE1) upon MPS treatment. Cells were incubated with various concentrations of MPS peptide for 72 hours and then subjected to MTS assays. Polylysine served as a peptide control. n=4, *P<0.05 compared with untreated cells (Con).” left out

Data set [3] has as its system normal human bronchial epithelial cells. The experiment in a line: Crystal violet staining of viable normal cells after peptide treatment. It counts as cell-based. Particulars: 50 μM or various concentrations; 72 hours. On the procedure: After 72 hours of peptide treatment, the number of viable cells was visualized by using crystal violet staining. A representative of three independent experiments.
(§2) After 72 hours of peptide treatment, the number of viable cells was visualized by using crystal violet staining. A representative example of three independent experiments is shown. […] Cells were incubated with various concentrations of MPS peptide for 72 hours and then subjected to MTS assays. 200 μM polyamine and aspartates-substituted mutant (Mut) peptide served as peptide controls (n=3).

A short description of data set [4]: Tolerability upon systemic administration. It counts as in vivo. Conditions: systemic administration in mice.
Data set [5] deals with lung cancer cells with low phospho-MARCKS levels. Kind of data set: MTS cell viability, lung cancer cell lines with low phospho-MARCKS levels. It counts as cell-based, human. Conditions: various concentrations, 72 hours. The method, then: as §2

Consider “KKKKKRFDFKKDFKLDGFDFKKNKK [Mut, aspartates-substituted mutant MPS peptide used as control]”, for which, in the data set on H1975 cells, the Tumor size entry was “continuous growth”. Besides, the “Suppression of p-MARCKS” value in data set [1] is reported as “no suppression”; in data set [1] (listed as Mut peptide), “not in Mut peptide-treated cells”.
Regarding “KKKKKRFAFKKAFKLAGFAFKKNKK [SEQ ID NO: 10, alanines-substituted MPS peptide]”, the “Phospho-MARCKS levels in cancer cells” value in data set [1] (alanine-substituted peptide) is “reduce phospho-MARCKS levels”. Moreover, the Peptide-cell interaction entry with CL1-0 cells is listed as “greater peptide-cell interaction”. Also, in the data set with cancer cells, the “Anti-cancer activity compared to MPS peptide of SEQ ID NO: 9” value is recorded as “better anti-cancer activity”.
Turning to `CC(C)C[C@H](NC(=O)[C@H](CCCCN)NC(=O)[C@H](Cc1ccccc1)NC(=O)[C@H](CO)NC(=O)[C@H](CCCCN)NC(=O)[C@H](CCCCN)NC(=O)[C@H](Cc1ccccc1)NC(=O)[C@H](CO)NC(=O)[C@H](Cc1ccccc1)NC(=O)[C@H](CCCNC(=N)N)NC(=O)[C@H](CCCCN)NC(=O)[C@H](CCCCN)NC(=O)[C@H](CCCCN)NC(=O)[C@H](CCCCN)NC(=O)[C@@H](N)CCCCN)C(=O)N[C@@H](CO)C(=O)NCC(=O)N[C@@H](Cc1ccccc1)C(=O)N[C@@H](CO)C(=O)N[C@@H](Cc1ccccc1)C(=O)N[C@@H](CCCCN)C(=O)N[C@@H](CCCCN)C(=O)N[C@@H](CC(N)=O)C(=O)N[C@@H](CCCCN)C(=O)N[C@@H](CCCCN)C(=O)O` [MPS] (H-KKKKKRFSFKKSFKLSGFSFKKNKK-OH), the “Cytotoxic / anti-proliferative effect on TKIs resistant cancer cells” value in data set [2] is reported as “cytotoxicity effect of MPS peptide is obvious; also recorded: obvious anti-proliferative effect”. Moreover, the “Cytotoxicity in normal human bronchial epithelial cells” value in data set [3] was “did not observe any cytotoxicity”. Moreover, the Tolerability entry in data set [4] is reported as “well tolerated upon systemic administration in mice”. The “Cytotoxicity in lung cancer cells with low phospho-MARCKS levels” value in data set [5] is “did not observe any cytotoxicity”.
